In patent US20250177392A1, “BROAD SPECTRUM INHIBITORS OF CYTOMEGALOVIRUS” (MICROBIOTIX, INC., priority 2022, published 2025):

Key:
[1] = system: CMV AD169^IE2-YFP; assay: Anti-CMV activity (IC50) of NAPA compounds, AD169 IE2-YFP reporter virus high-content assay in fibroblasts; assay type: cell-based, Human cytomegalovirus
Description: To identify CMV inhibitors, a high-content screening (HCS) early-stage-specific reporter assay using a CMV AD169 yellow-fluorescent protein (YFP) expressing virus (AD169^IE2-YFP) (Gardner et al., Antiviral Res., 113:49-61 (2015)) was developed to screen >112,000 compounds to identify potent inhibitors (IC50<10 μM) of cytomegalovirus having a minimal mammalian cytotoxicity (CC50) of preferably ≥100 μM. As a result, we have identified, isolated, and characterized a novel series of N-arylpyrimidinamines (NAPAs) that inhibit CMV infection. […] Further, the NAPA compounds are broadly effective at inhibiting virus infection of diverse strains and cell types.
The CMV IE1 and IE2 gene products are translated within 3-6 hours post infection (hpi) and function to stimulate viral promoters to initiate transcription of early and late viral genes (Cherrington et al., J. Virol., 63:1435-40 (1989); Meier et al., J. Virol., 71:1246-1255 (1997)). The CMV AD169 variant that expresses a viral protein chimera consisting of IE2-YFP (AD1691E2/YFP) was utilized to quantify virus infection in a high-throughput screen by a robust fluorescent signal localized exclusively to the nucleus (8-24 hpi) (Gardner et al., supra (2015); Cohen et al., Viruses, 8 (10): 295 (2016); Cohen et al., J. Virol., 90:10715-10727 (2016)). Using the AD1691E2-YFP reporter virus assay, a collection of the compound libraries (>112,000 compounds) was screened for inhibitors of the early stages of CMV replication using a confocal fluorescence microscopic plate reader (BioTek Cytation3). Infection was calculated as a percentage of nuclei containing YFP and cycloheximide (8 μM) was used as a positive control. The Z′ factor for the optimized assay was >0.5 which was sufficient to initiate screening.
We evaluated 300 primary hits using an assay funnel designed to prioritize compounds based on antiviral activity, specificity, and drug-like properties. This identified two candidates for hit-to-lead optimization that were not Pan Assay Interference compounds (PAINS) (Baell et al., J. Med. Chem., 53:2719-40 (2010); Capuzzi et al., J. Chem. Inf. Model 57:417-427 (2017); Dahlin et al., Assay Drug Dev. Technol., 14:168-174 (2016)). […] The NAPA series was chosen as the primary hit-to-lead series due to its synthetic accessibility and the >2-log range in potency observed in the preliminary SAR that provides a clear pathway to improving antiviral activity and drug-like properties.

[2] = system: AD169^R; assay: Generation of infectious virions (supernatant infectious dose); assay type: cell-based, Human cytomegalovirus; details: MRC5 fibroblasts and ARPE-19 cells, MOI 0.5, 1-20 μM for 5 days
Description: FIGS. 13A and B are graphs showing that MBX-4992 limits the generation of infectious virions in fibroblasts and epithelial cells. MRC5 and ARPE-19 cells infected with AD169^R (MOI 0.5) were treated with DMSO, MBX-4992 (1, 5, 10, and 20 μM), and ganciclovir (5 μM) for 5 days, washed, and replaced with media for 3 days. The supernatant of MRC5 treated-cells (A) and ARPE-19-treated (B) cells was used to infect MRC5 cells. Virus infection was analyzed 24 hpi using GFP fluorescent signal as the readout with a Celigo cytometer. The viral infectious dose (IU/ml) was determined from each condition. The error bars are based on differences of infectious dose from 5 samples. Statistical tests were performed using ordinary one-way ANOVA with multiple comparisons to DMSO treated cells as a control and a Dunnett's post-test ****, p<0.0001.

[3] = system: NHDF cells; assay: CellTiter Glo ATP luciferase assay; assay type: cell-based, human; details: human, 6 days
Description: Fibroblasts were treated with increasing concentrations of MBX-4992 and MBXC-4336 for up to 6 days and cell number was measured periodically using Hoechst stain to quantify cell proliferation (A and B). Cyclohexamide (CHX) and DMSO (−) were used as positive and negative controls for cytotoxicity respectively. Cell cytostaticity (C and D) was assessed using ATP-based CellTiter Glo luciferase assay following extended incubation with increasing concentrations of MBX-4992 and MBXC-4336 for 1 or 6 days. Relative light units (RLU) were measured following cell lysis and normalized to DMSO treated cells for each time point.
The CellTiter Glo Luminescent Assay (Promega Inc, Madison, WI) was performed according to the manufacturer's instruction. NHDF cells (10^4) were plated in a 96-well plate overnight and treated with MBX-4992 or MXC-4336 ([…]) in triplicate for up to 6 days. Cyclohexamide (50 μg/mL) was used as a control. CellTiter Glo substrate was added in a 1:1 ratio with media and CellTiter-Glo reagent followed by the analysis of luciferase activity (relative light units, RLU) using a BioTek Synergy H1 microplate reader. In parallel, an identical plate was labelled with Hoescht reagent (25 μg/mL) to quantify the cell number using a Celigo Cytometer.
Next, the cytostaticity and cytotoxicity of treatment with MBX-4992 and MBXC-4336 was analyzed. […]

SMILES | selectivity index (SI) ([1]; CC50/IC50) | IC50 ([1]; Human betaherpesvirus 5, AD169, Fibroblast) [nM] | generation of infectious virions [2] | decrease of luciferase activity [3] [%]
Cc1nc(Nc2ccc(NC(=O)c3ccco3)cc2)cc(N2CCCC2)n1 [MBX-4992] | > 50 | 1720 | significantly decreased generation of infectious AD169^R virions | 
Cc1nc(Nc2cccc(NC(=O)c3ccco3)c2)cc(N2CCCCC2)n1 [MBXC-4336] |  |  |  | 10
